Reference: ChEMBL document CHEMBL1140205, “Discovery and development of fatty acid amide hydrolase (FAAH) inhibitors” (J Med Chem, 2008)

What follows are molecules tested against T1, Fatty-acid amide hydrolase 1 (Homo sapiens, UniProt O00519) (assay: Inhibition of FAAH). Details: not given.
T1 sequence (O00519 whole entry): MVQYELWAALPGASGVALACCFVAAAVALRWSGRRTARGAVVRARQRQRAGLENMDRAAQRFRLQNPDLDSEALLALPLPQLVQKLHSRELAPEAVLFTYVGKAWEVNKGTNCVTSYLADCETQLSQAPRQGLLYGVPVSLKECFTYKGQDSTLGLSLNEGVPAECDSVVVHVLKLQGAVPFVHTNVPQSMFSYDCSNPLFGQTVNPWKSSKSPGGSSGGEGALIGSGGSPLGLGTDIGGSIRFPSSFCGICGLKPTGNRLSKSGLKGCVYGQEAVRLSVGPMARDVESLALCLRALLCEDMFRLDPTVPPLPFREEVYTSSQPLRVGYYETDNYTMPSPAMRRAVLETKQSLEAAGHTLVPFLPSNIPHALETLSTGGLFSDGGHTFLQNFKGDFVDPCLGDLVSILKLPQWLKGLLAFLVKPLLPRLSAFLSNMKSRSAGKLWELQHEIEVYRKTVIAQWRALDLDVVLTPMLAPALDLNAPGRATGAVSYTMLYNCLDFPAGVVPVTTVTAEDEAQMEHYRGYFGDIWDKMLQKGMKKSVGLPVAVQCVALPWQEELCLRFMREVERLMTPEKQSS

Row | SMILES | Ki [µM]
1 | CCCCCCCCCC(=O)C(F)(F)F | 0.13
2 | CCCCCCCC/C=C\CCCCCCC(=O)c1ccccc1 | > 100
3 | CCCCCCCC/C=C\CCCCCCC(=O)c1nccn1C | > 100
4 | O=C(CCCCCCc1ccccc1)C(F)(F)F | 0.1
5 | CCCCCCCC/C=C\CCCCCCC(=O)c1ccncn1 | 0.11
6 | CCCCCCCC/C=C\CCCCCCC(=O)c1cccnn1 | 0.13
7 | CCCCCCC(C)OC(=O)CC(=O)CBr (stereo not given) | 0.82
8 | CCCCCCC(=O)C(F)(F)F | 10.7
9 | CCCCCCCC/C=C\CCCCCCCC(=O)O [OLEIC ACID] | 6
10 | CCCCCCCC/C=C\CCCCCCCC(=O)CCl | 0.7
11 | CCCCCCCC/C=C\CCCCCCC(=O)c1ncc(-c2ccccn2)o1 | 0.018
12 | CCCCCCCC/C=C\CCCCCCC(=O)c1ncc(-c2ccoc2)o1 | 0.61
13 | CCCCCCCCCCCCCCCCCC(=O)C(F)(F)F | 0.24
14 | CCCCCCCC/C=C\CCCCCCC(=O)c1nccs1 | > 100
15 | O=C(CCCCCCc1cccc(Cl)c1)c1ncc(-c2ccccn2)o1 | 0.0009
16 | O=C(CCCCCCc1ccccc1)c1nnc(-c2ccccn2)[nH]1 | > 10
17 | CCCCCCCC/C=C\CCCCCCC(=O)c1nc2cc(C)ccc2o1 | > 100
18 | O=C(CCCCc1ccccc1)c1nc2ncccc2o1 | 0.0003
19 | CCCCCCCC/C=C\CCCCCCC(=O)c1nc2ccccc2o1 | 0.37
20 | CN(CCCCC(=O)c1ncc(-c2ccccn2)o1)Cc1ccccc1 | 0.2
21 | CCCCCCCC/C=C\CCCCCCCC(=O)C(F)(F)F | 0.012
22 | O=C(CCCCSCc1ccccc1)c1ncc(-c2ccccn2)o1 | 0.025

Row | SMILES | Ki [µM]
23 | CCCCCCCC/C=C\CCCCCCC(=O)c1ncc(-c2ccsc2)o1 | 13.2
24 | CCCCCCCC/C=C\CCCCCCC(=O)c1ncco1 | 0.017
25 | CCCCCCCC/C=C\CCCCCCC(=O)c1ncc(-c2cccnc2)o1 | 0.061
26 | CCCCCCCC/C=C\CCCCCCC(=O)c1nnn(C)n1 | 0.065
27 | O=C(CCCCCCCc1ccccc1)c1nc2ncccc2o1 | 0.00039
28 | CCCCCCCC/C=C\CCCCCCCC(O)C(N)=O (stereo not given) | > 100
29 | CCCCCCCC/C=C\CCCCCCC(=O)c1nc2cnccc2o1 | 0.0072
30 | O=C(CCCCCCc1ccccc1)c1nc2ncccc2o1 | 0.00028
31 | O=C(CCCCCCc1ccccc1)c1nnc[nH]1 | > 1
32 | CCCCCCCC/C=C\CCCCCCC(=O)c1nc2ncccc2o1 | 0.0023
33 | O=C(O)c1cccc(CCCCCCC(=O)c2ncc(-c3ccccn3)o2)c1 | > 0.6
34 | N#Cc1cnc(C(=O)CCc2ccc(-c3ccccc3)cc2)o1 | 0.0002
35 | CCCCCCCC/C=C\CCCCCCCC(OC)OC | > 300
36 | O=C(CCCC[S+]([O-])Cc1ccccc1)c1ncc(-c2ccccn2)o1 (stereo not given) | 2.5
37 | CCCCCCCC/C=C\CCCCCCC(=O)c1nc2cccnc2o1 | 0.011
38 | CCCCCC(=O)C(F)(F)F | 28.9
39 | CCCCCCCC/C=C\CCCCCCC(=O)c1nnc(-c2ccccn2)o1 | 3
40 | O=C(CCCCOCc1ccccc1)c1ncc(-c2ccccn2)o1 | 0.055
41 | CCCCCCCC/C=C\CCCCCCC(=O)c1nc2ccncc2o1 | 0.0037
42 | CCCCCCCCCCCC(=O)C(F)(F)F | 0.14
43 | O=C(CCCCCCc1ccccc1)c1nnn[nH]1 | > 1
44 | O=C(CCCCCc1ccccc1)c1nc2ncccc2o1 | 0.0002

Row | SMILES | Ki [µM]
45 | CCCCCCCC(=O)C(F)(F)F | 1.2
46 | CCCCCCCC/C=C\CCCCCCC(=O)c1nc(-c2ccccn2)co1 | 0.031
47 | O=C(CCc1ccc(COc2ccccc2)cc1)c1ncc(-c2ccccn2)o1 | 0.001
48 | CCCCCCCC/C=C\CCCCCCCC(=O)C(N)=O | 0.017
49 | CCCCCCCC/C=C\CCCCCCCC(C)=O | > 100
50 | O=C(CCCCCCCCc1ccccc1)c1nc2ncccc2o1 | 0.00052
51 | CCCCCCCC/C=C\CCCCCCC(=O)c1ccccn1 | > 100
52 | CCCCCCCCCCCCCC(=O)C(F)(F)F | 0.49
53 | CCCCCCCC/C=C\CCCCCCC(=O)c1ncc(-c2ccncc2)o1 | 0.056
54 | CCCCCCCC/C=C\CCCCCCC(=O)c1ncc(-c2ccccc2)o1 | 0.32
55 | CCCCCCCC/C=C\CCCCCCC(=O)c1nc2ccc(C)cc2o1 | > 100
56 | O=C(CCCCCCc1ccccc1)c1nnn(-c2ccccn2)n1 | 0.0011
57 | CCCCCCCC/C=C\CCCCCCCC=O [OLEALDEHYDE] | 0.19
58 | CCCCCCCC/C=C\CCCCCCC(=O)c1nc2c(C)cccc2o1 | > 100
59 | CCCCCCCC/C=C\CCCCCCC(=O)c1ncc(-c2ccco2)o1 | 0.054
60 | CCCCCCCC/C=C\CCCCCCCC(=O)C(=O)OCC | 0.009
61 | O=C(CCCCS(=O)(=O)Cc1ccccc1)c1ncc(-c2ccccn2)o1 | > 10
62 | CCCCCCCC/C=C\CCCCCCC(=O)c1nc(-c2ccccc2)c(-c2ccccc2)o1 | > 100
63 | O=C(CCCc1ccccc1)c1nc2ncccc2o1 | 0.0069
64 | CCCCCCCC/C=C\CCCCCCC(=O)c1nc2cccc(C)c2o1 | 13

Same assay, conditions: read-out: IC50

Row | SMILES | IC50 [µM]
65 | CNC(=O)COC(=O)N1CCC(CCc2ccc(Cl)cc2)CC1 | 0.013
66 | CCCCC/C=C\C/C=C\C/C=C\C/C=C\CCCNC(=O)NCc1ccc(OC)c(O)c1 | 2
67 | O=C(Nc1cccc(C(=O)c2nc3ccccc3o2)c1)NC1CCCC1 | > 300
68 | O=C(NC1CCCC1)Oc1cccc(C(=O)c2nc3ccccc3s2)c1 | 47
69 | CCCCC/C=C\C/C=C\C/C=C\C/C=C\CCCC(=O)NC12CC3CC(CC(C3)C1)C2 | 37.4
70 | CCOC(=O)CCCc1ccc(-n2c(CC)nc(-c3ccccc3)c2-c2ccccc2)cc1 | 0.064
71 | CCCCC/C=C\C/C=C\C/C=C\C/C=C\CCCC(=O)NCC1CC1 | 1.4
72 | NC(=O)c1cccc(-c2cccc(OC(=O)NCc3ccc4ccccc4c3)c2)c1 | 0.00063
73 | CC(C)c1cccc(CN2CCC(CCCC(=O)c3ncco3)CC2)c1 | 0.0036
74 | CCCCC/C=C\C/C=C\C/C=C\C/C=C\CCCC(=O)NCCO [ANANDAMIDE] | 3.4
75 | CCCCC/C=C\C/C=C\C/C=C\C/C=C\CCCC(=O)Nc1cccnc1 | 1.2
76 | OB(O)c1ccc(Oc2ccccc2)cc1 | < 0.01
77 | CCCCC/C=C\C/C=C\C/C=C\C/C=C\CCCC(=O)O [ARACHIDONIC ACID] | > 100
78 | O=C(NC1CCCC1)Oc1cccc(C(=O)c2nc3ccccc3o2)c1 | 28
79 | CCCCC/C=C\C/C=C\C/C=C\C/C=C\CCCC(=O)NCCCl | 0.9

Same assay, conditions: read-out: pIC50 (converted)

Row | SMILES | IC50 [µM]
80 | C=CCNC(=O)CCCCCCCCCCCCCCC [HEXADECANOIC ACID ALLYLAMIDE] | 3.39
81 | CCCCCCCCCCCCCCCC(=O)NCCCl | 2.63
82 | CCCCCCCCCCCCCCCC(=O)NCCCO [N-(3-HYDROXYPROPYL)PALMITAMIDE] | 3.8
83 | CCCCCCCCCCCCCCN1C(=O)C(c2ccccc2)(c2ccccc2)NC1=S | 1.15
84 | CCCCCCCCCCCCCCCC(=O)NCC | 3.55
85 | CCCCCCCCCCCCCCCC(=O)NCCBr | 3.55
86 | CCCCCCCCCCCCCCCC(=O)NCCCCl | 2.51

What follows are molecules tested against T2, Fatty-acid amide hydrolase 1 (Rattus norvegicus, UniProt P97612) (assay: Inhibition of rat FAAH). Details: not given.
T2 sequence (P97612 whole entry): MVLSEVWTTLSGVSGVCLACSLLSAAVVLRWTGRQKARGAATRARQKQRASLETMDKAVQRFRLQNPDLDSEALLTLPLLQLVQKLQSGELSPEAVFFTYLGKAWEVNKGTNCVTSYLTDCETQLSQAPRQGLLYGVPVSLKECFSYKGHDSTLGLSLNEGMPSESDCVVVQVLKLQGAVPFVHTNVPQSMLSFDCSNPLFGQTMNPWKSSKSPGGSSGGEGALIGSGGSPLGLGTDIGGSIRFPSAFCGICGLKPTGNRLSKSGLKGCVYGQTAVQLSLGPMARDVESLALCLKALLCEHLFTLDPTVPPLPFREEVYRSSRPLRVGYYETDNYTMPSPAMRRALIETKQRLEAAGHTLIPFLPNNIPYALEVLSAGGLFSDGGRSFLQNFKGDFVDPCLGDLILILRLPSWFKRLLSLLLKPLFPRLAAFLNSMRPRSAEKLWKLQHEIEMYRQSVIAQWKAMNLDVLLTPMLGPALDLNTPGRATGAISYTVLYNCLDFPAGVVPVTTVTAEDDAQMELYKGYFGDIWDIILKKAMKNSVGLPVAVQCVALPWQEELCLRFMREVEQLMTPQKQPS

Row | SMILES | IC50 [µM]
87 | CN(C)C(=O)n1nnnc1Cc1ccc(-c2ccccc2)cc1 | 0.0124
88 | CCCC(C)C1(CC)C(=O)NC(=S)NC1=O (stereo not given) [THIOPENTAL] | 2000
89 | CC(C)c1cccc(C(C)C)c1O [PROPOFOL] | 14

These molecules were tested against T1, Fatty-acid amide hydrolase 1 (assay: Inhibition of human FAAH). Details: not given.

Row | SMILES | IC50 [µM]
90 | CNC(=O)Oc1cccc2ccccc12 [CARBARIL] | > 30
91 | O=C(NC1CCCCC1)Oc1ccc2ccccc2c1 | 0.324
92 | O=C(NCC1CCCCC1)Oc1ccc(C(=O)O)cc1 | < 0.1
93 | CCCCCCCC/C=C\CCCCCCCNC(=O)Oc1cccc(-c2cccc(C(N)=O)c2)c1 | 0.058
94 | NC(=O)c1cccc(-c2cccc(OC(=O)NCCCCCCc3ccccc3)c2)c1 | 0.014
95 | O=C(NC1CCCCC1)Oc1cccc(-c2ccccc2)c1 | 0.063
